Data: ChEMBL document CHEMBL3407497, “Discovery of small molecule inhibitors to Krüppel-like factor 10 (KLF10): implications for modulation of T regulatory cell differentiation” (J Med Chem, 2015)
Calls of active or inactive are those of the source. The rule behind the calls is not given here.

What was measured:
[1] = Inhibition of zinc finger protein C7 (unknown origin) assessed as reduction in transcriptional activity by luciferase reporter gene assay relative to untreated control; parameters: species or system Homo sapiens
[2] = target: T1, Krueppel-like factor 10 (Homo sapiens) (UniProt Q13118); experiment: Inhibition of KLF10 (unknown origin) binding to DNA at 8 uM incubated for 4 hrs followed by biotin-labeled probes addition and incubated for another 1 hr by electromobility gel shift assay
T1 sequence (whole entry): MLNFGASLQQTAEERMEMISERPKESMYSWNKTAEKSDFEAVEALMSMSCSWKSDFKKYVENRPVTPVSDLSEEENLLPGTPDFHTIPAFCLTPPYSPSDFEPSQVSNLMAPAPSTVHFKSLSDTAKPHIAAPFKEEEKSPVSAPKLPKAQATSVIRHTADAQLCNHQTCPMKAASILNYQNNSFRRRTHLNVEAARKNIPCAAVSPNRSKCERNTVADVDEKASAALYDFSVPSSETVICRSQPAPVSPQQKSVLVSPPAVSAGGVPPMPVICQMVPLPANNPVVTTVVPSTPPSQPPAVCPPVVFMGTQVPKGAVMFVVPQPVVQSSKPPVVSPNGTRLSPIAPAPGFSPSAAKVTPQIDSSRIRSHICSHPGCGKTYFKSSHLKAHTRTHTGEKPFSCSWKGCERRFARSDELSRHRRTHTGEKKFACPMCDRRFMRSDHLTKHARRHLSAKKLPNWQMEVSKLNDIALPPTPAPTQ

[3] = system: T-cell; experiment: Inhibition of Foxp3 gene expression in mouse T regulatory cells at 50 uM measured during TGFbeta1-induced conversion of CD4(+) and CD25(-) cells to CD4(+) and CD25(+) cells incubated for 3 days by real-time quantitative PCR method; assay type: functional; settings: 72 h
[4] = system: T-cell; experiment: Inhibition of mouse T regulatory cell differentiation assessed as inhibition of TGFbeta1-induced conversion of CD4(+) and CD25(-) cells to CD4(+) and CD25(+) cells incubated for 3 days by flow cytometry; assay type: functional
[5] = system: HEK293; experiment: Inhibition of GLI (unknown origin) expressed in HEK293 cells assessed as reduction in GLI-mediated transcription at 30 uM; assay type: cell-based; settings: Homo sapiens
[6] = target: T2, Krueppel-like factor 10 (Homo sapiens, UniProt Q13118); experiment: Inhibition of human KLF10 expressed in human HeLa cells assessed as reduction in transcriptional activity after 24 hrs by CACCC-responsive promoter driven TK-luciferase reporter gene assay; assay type: cell-based
T2 sequence (Q13118 whole entry): T1 sequence (whole entry)

[7] = target: Krueppel-like factor 1 (Homo sapiens) (UniProt Q13351); experiment: Inhibition of KLF1 (unknown origin) binding to DNA at 8 uM incubated for 4 hrs followed by biotin-labeled probes addition and incubated for another 1 hr by electromobility gel shift assay
Chain of Krueppel-like factor 1 (Homo sapiens) (Q13351 whole entry): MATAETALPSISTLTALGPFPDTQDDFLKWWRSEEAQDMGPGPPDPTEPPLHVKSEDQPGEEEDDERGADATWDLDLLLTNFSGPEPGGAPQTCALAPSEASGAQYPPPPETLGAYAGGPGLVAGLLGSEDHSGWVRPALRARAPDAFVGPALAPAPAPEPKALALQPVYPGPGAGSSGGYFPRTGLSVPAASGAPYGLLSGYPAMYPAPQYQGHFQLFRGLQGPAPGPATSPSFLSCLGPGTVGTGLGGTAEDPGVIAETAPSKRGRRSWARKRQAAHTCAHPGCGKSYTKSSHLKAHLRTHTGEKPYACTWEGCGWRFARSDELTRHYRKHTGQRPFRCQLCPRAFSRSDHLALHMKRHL

[8] = target: Krueppel-like factor 1 (Homo sapiens) (UniProt Q13351); experiment: Inhibition of KLF1 (unknown origin) binding to DNA at 40 uM incubated for 4 hrs followed by biotin-labeled probes addition and incubated for another 1 hr by electromobility gel shift assay
[9] = target: T1, Krueppel-like factor 10 (Homo sapiens); experiment: Inhibition of KLF10 (unknown origin) binding to DNA at 40 uM incubated for 4 hrs followed by biotin-labeled probes addition and incubated for another 1 hr by electromobility gel shift assay

SMILES | inhibition [2] [%] | inhibition at 50 µM [3] [%] | inhibition (INH) [4] [%] | inhibition [5] | inhibition [7] | inhibition [8] | inhibition [9] [%] | also measured
c1ccc2[nH]c(-c3ccnc4ccccc34)nc2c1 |  |  |  |  |  |  |  | EC50 [1]: 35 µM
Cc1sc2nc(SCC(=O)c3ccc(O)c(O)c3)[nH]c(=O)c2c1C | 25 | 90.8 | 29.2 |  |  |  |  | 
CN(C)c1ccccc1CN1CCCN(Cc2ccccc2N(C)C)C1c1ccncc1 |  |  |  | Active |  |  |  | 
COc1ccc(C(=O)COC(=O)c2cc(C)ccc2O)cc1 | 12 | 82.5 | 59.1 |  | inactive | inactive | 45 | IC50 [6]: 40 µM
c1cc(-c2sc(-c3ccncc3)c(-c3ccncc3)c2-c2ccncc2)ccn1 |  |  |  | Active |  |  |  | 
Cc1ccc(OCC(=O)c2cc(C)c(O)cc2O)cc1 | 11 | 84.7 |  |  | inactive | inactive | 25 | 
